Changes are numbered by the printed parent chain.

The text below walks through data of patent US9650616B2, “Methods for increasing grain yield” (University of Florida Research Foundation, Inc., priority 2014, dated 2017).

Assay [1] addresses T1, maize endosperm AGPase, large subunit variant GGRV (Q96G, D161G, A443R, I285V; numbering of SEQ ID NO: 20) (Zea mays, UniProt P55241+Q84PF5, A443R/D161G/I285V/Q96G).
T1 sequence (P55241 46-516 A443R/D161G/I285V/Q96G): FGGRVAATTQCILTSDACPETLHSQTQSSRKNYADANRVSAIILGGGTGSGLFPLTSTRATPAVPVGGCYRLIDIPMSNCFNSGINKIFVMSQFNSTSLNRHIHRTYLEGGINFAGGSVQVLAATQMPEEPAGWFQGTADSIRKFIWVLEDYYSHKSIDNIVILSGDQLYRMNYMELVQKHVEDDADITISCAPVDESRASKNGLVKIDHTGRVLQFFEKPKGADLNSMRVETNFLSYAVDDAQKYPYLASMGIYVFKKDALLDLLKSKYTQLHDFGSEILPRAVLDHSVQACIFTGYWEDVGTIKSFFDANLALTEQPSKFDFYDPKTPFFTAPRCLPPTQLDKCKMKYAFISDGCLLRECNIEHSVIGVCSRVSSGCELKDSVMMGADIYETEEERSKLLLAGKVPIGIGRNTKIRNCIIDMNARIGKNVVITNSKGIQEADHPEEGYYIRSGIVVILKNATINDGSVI
T1 sequence (Q84PF5 1-474): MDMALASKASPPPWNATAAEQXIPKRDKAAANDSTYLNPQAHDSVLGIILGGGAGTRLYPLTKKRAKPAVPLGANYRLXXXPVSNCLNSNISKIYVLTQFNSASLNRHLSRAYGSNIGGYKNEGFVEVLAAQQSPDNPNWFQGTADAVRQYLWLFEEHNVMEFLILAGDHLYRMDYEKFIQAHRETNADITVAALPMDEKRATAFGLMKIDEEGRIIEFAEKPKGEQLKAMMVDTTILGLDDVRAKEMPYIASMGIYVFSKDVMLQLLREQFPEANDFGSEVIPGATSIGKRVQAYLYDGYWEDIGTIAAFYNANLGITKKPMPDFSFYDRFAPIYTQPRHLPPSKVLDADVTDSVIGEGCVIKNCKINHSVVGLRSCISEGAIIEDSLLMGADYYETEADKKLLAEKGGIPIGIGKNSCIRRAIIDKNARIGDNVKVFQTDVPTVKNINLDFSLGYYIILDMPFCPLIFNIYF
As to the kind of experiment: Apparent kinetic constants with 3-PGA, 37° C., GGRV. It is filed as biochemical. To be noted: read-out: ATP Km. From the text:
(§1) The small and large subunit plasmids of maize endosperm AGPase (pMONcBt2 and pMONcSh2, respectively) (Giroux et al., 1996) were expressed in E. coli AC70R1-504 cells (Iglesias et al., 1993) as previously described (Boehlein et al., 2008).
(§2) An endpoint assay was used to determine the rate of the AGPase reaction by coupling the formation of PPi to a decrease in NADH concentration (Boehlein et al., 2008). […] The Michaelis constants (Km) were obtained by varying one substrate in the presence of saturating concentrations of the second substrate. The activation constants were obtained by varying the activator at fixed levels of both substrates. All reactions were performed at 37° C. and mixes were prewarmed before starting the reaction with enzyme. […] The absorbance at 340 nm was monitored after 30 min and the amount of PPi produced was determined from a standard curve using PPi in complete reaction mixtures lacking AGPase. Blank samples contained complete reaction mixtures without enzyme and the change in absorbance between the blank and the reaction was used to calculate the amount of PPi produced. […]
(§3) The apparent Michaelis constant and maximum velocity of each reaction was calculated from a V vs. S plots using nonlinear regression analysis and the following equation, v=VmaxS/(Km+S), where v is the measured velocity, Vmax is the maximum velocity, S is the substrate concentration. […]

Assay [2] concerns the target T2, maize endosperm AGPase, large subunit variant GGRA (Q96G, D161G, A443R, Q289A; numbering of SEQ ID NO: 20) (Zea mays, UniProt P55241+Q84PF5, A443R/D161G/Q289A/Q96G).
T2 sequence (P55241 46-516 A443R/D161G/Q289A/Q96G): T1 sequence (P55241 46-516 A443R/D161G/I285V/Q96G) with V240I, Q244A
T2 sequence (Q84PF5 1-474): T1 sequence (Q84PF5 1-474)
As to the kind of experiment: Apparent kinetic constants with 3-PGA, 37° C., GGRA. It is filed as biochemical. To be noted: read-out: ATP Km.
From the text: as §1, §2, §3

In assay [3] the test system is maize endosperm AGPase, heat stable ISM mutants. As to the kind of experiment: Apparent kinetic constants with 3-PGA, 37° C., ISM mutants collectively. It counts as biochemical, Zea mays. To be noted: mutants versus wt maize, in the presence of 3-PGA. As for the experimental part: An endpoint assay was used to determine the rate of the AGPase reaction by coupling the formation of PPi to a decrease in NADH concentration (Boehlein et al., 2008). […] The Michaelis constants (Km) were obtained by varying one substrate in the presence of saturating concentrations of the second substrate. The activation constants were obtained by varying the activator at fixed levels of both substrates. All reactions were performed at 37° C. and mixes were prewarmed before starting the reaction with enzyme. Reactions were terminated by boiling the reaction mixes for 2 minutes followed by development with 200 μl of coupling reagent (25 mM imidazole pH 7.4, 4 mM MgCl2, 1 mM EDTA, 0.2 mM NADH, 0.725 U aldolase, 0.4 U triose phosphate isomerase, 0.6 U glycerophosphate dehydrogenase, 1 mM fructose 6-phosphate and 0.8 μg purified PPi-PFK per reaction). The absorbance at 340 nm was monitored after 30 min and the amount of PPi produced was determined from a standard curve using PPi in complete reaction mixtures lacking AGPase. Blank samples contained complete reaction mixtures without enzyme and the change in absorbance between the blank and the reaction was used to calculate the amount of PPi produced. Reactions were linear with time and enzyme concentration.
The apparent Michaelis constant and maximum velocity of each reaction was calculated from a V vs. S plots using nonlinear regression analysis and the following equation, v=VmaxS/(Km+S), where v is the measured velocity, Vmax is the maximum velocity, S is the substrate concentration. The activation constant (Ka) was obtained using the following equation: V=Vmin+Vmax*(X)/(Ka+X), where Vmin is the velocity in the absence of activator and Vmax is the change in activity from Vmin to the total velocity. X is the activator concentration, Ka is the activation constant. All linear regression was carried out using the software program Prism (Graph Pad, San Diego Calif.).
Each mutant, comprising 1, 2, 3 or 4 changes, was grown in a large scale culture, expressed and purified according to standard procedures (Boehlein et al., 2005). […] Thus, the effects of these mutations on the kinetic constants are minimal. Next, the activation constant, Ka, was determined for each of the mutant enzymes. Here a decrease in the Ka for each of the mutants of approximately 3-6 fold was observed. This property appears to stem from the D161G change, and includes all enzymes which carry this mutation (Table 8). To be certain the effect is the result of the D161G mutation, and not the result of other single mutant changes, Q96R and Q96G were purified and characterized.

The term Km denotes the concentration of substrate that gives half-maximal velocity. For `Nc1ncnc2c1ncn2[C@@H]1O[C@H](COP(=O)(O)OP(=O)(O)OP(=O)(O)O)[C@@H](O)[C@H]1O` [ATP], the figures for the Km in assay [1] and in assay [2] were 46 µM and 57 µM, respectively. Besides, the “largest variation in Km” value in assay [3] is reported as “approximately two-fold”.
